Marks after values point to notes of the source that are not given here.
assay: Measurement of LogP values by HPLC on reversed phase columns (EEC directive 79/831 Annex V.A8); assay type: physicochemical; settings: not given
Procedure: The abbreviations and numerations of the substituent positions used in the context of the present invention and in the following Tables are explained in detail in the section Examples hereinafter. Also, the LogP values indicated in the following Tables are explained in detail in the section Examples hereinafter. In case LogP values for different diastereoisomers of a specific compound are […], said LogP values are […] by a “+”. […] Measurement of LogP values was performed according to EEC directive 79/831 Annex V.A8 by HPLC (High Performance Liquid Chromatography) on reversed phase columns with the following methods: […] Lambda-max-values were determined using UV-spectra from 200 nm to 400 nm and the peak values of the chromatographic signals

| Compound | LogP | LogP [a] | LogP [b] |
| --- | --- | --- | --- |
| CON(CC1CCCCC1)C(=O)c1snc(N)c1Cl [I-543] | 3.04[a] | – | – |
| Cc1c(N)nsc1C(=O)NCc1ccc(Cl)nc1 [I-110] | 1.09[a] | – | – |
| O=C(NCC1CCCCO1)c1snc(Cl)c1Cl (stereo not drawn) [E-II-010] | – | 2.87^[a] | – |
| Nc1nsc(C(=O)NCc2cccc(Cl)c2Cl)c1Cl [I-019] | 2.49[a] | – | – |
| CC1CCCCC1NC(=O)c1snc(N)c1I (stereo not drawn) [I-1564] | 2.14[a] | – | – |
| CCC1(CNC(=O)c2snc(NC(C)C)c2Cl)CCCCC1 [I-834] | 5.03[a] | – | – |
| Nc1nsc(C(=O)NC2CC2)c1Cl [I-115] | 0.84[a] | – | – |
| Nc1nsc(C(=O)NCCc2ncc(C(F)(F)F)cc2Cl)c1Br [I-964] | 2.55[a] | – | – |
| CC(Cc1ccccc1Cl)NC(=O)c1snc(N)c1Cl (stereo not drawn) [II-011] | – | 2.64^[a] | – |
| CCC(C)C(C)N(C(=O)c1snc(N)c1Cl)C1CC1 (stereo not drawn) [I-901] | 3.00[a] | – | – |
| Nc1nsc(C(=O)NC2CCCCC2)c1C1CC1 [I-360] | 2.00[a] | – | – |
| Cc1ccc(F)c(CN(C(=O)c2cc(N(Cc3ccccc3)Cc3ccccc3)ns2)C2CC2)c1 [I-990] | 5.56[a] | – | – |
| O=C(Nc1nscc1Cl)c1ccc(F)cc1 [Z-A-002] | – | 1.74^[a] | – |
| Nc1nsc(C(=O)NCC2CCCCC2)c1C1CC1 [I-359] | 2.37[a] | – | – |
| O=C(c1cc(N(Cc2ccccc2)Cc2ccccc2)ns1)N(Cc1cc(Cl)cc(C(F)(F)F)c1)C1CC1 [I-943] | 6.16[a] | – | – |
| Nc1nsc(C(=O)Nc2ccc(Cl)cc2)c1Cl [I-878] | 2.51[a] | – | – |
| O=C(NCC1CCCOC1)c1snc(N=C(c2ccccc2)c2ccccc2)c1Cl (stereo not drawn) [II-007] | – | 3.71^[a] | – |
| C[C@H](NC(=O)c1snc(N)c1Br)C1CCCCC1 [I-818] | 2.84[a] | – | – |
| O=C(NCc1cc(F)cc(F)c1)c1cc(N(Cc2ccccc2)Cc2ccccc2)ns1 [I-285] | 4.53[a] | – | – |
| CCCS(CC)=Nc1nsc(C(=O)NCc2cc(F)c(F)cc2F)c1F (stereo not drawn) [II-103] | – | 2.10^[a] | – |
| Nc1cc(C(=O)NCc2cccc(Cl)c2)sn1 [I-281] | 1.78[a] | – | – |
| CCOC(=O)C1CCC(NC(=O)c2snc(N)c2Cl)CC1 (stereo not drawn) [I-844] | 2.02[a] | – | – |
| Nc1cc(C(=O)NCc2c(F)cc(F)cc2F)sn1 [I-180] | 1.50[a] | – | – |

| Compound | LogP | LogP [a] | LogP [b] |
| --- | --- | --- | --- |
| Nc1nsc(C(=O)NCc2cccnc2Cl)c1Cl [I-036] | 1.22[a] | – | – |
| C[C@H]1CCCC[C@H]1NC(=O)c1snc(N)c1F (relative stereo) [I-1356] | 2.11[a] | – | – |
| CC(C)CN(C(=O)c1snc(N)c1Cl)C1CC1 [I-902] | 2.25[a] | – | – |
| C[C@H]1CCCC[C@H]1CNC(=O)c1snc(N)c1I (relative stereo) [I-1541] | 2.67[a] | – | – |
| O=C(NCC1CCOC1)c1snc(Cl)c1Cl (stereo not drawn) [E-II-007] | – | 1.84^[a] | – |
| CCC(NC(=O)c1cc(N)ns1)C1CCCCC1 (stereo not drawn) [I-1407] | 2.30[b] | – | – |
| Cc1nn(C)cc1CNC(=O)c1snc(N)c1Cl [I-034] | 0.76[a] | – | – |
| Nc1nsc(C(=O)NCC2(F)CCCCC2)c1Cl [I-615] | 2.17[a] | – | – |
| C[C@H](NC(=O)c1snc(N(Cc2ccccc2)Cc2ccccc2)c1C(F)F)C1CCCCC1 [I-263] | 6.20[a] | – | – |
| O=C(Nc1ccc(Cl)cc1Cl)c1snc(N(Cc2ccccc2)Cc2ccccc2)c1Br [I-960] | 7.15[a] | – | – |
| CC(C)c1ccccc1CN(C(=O)c1snc(N)c1Cl)C1CC1 [I-118] | 3.33[a] | – | – |
| O=C(c1cc(N(Cc2ccccc2)Cc2ccccc2)ns1)N(Cc1ccc(Cl)cc1Cl)C1CC1 [I-940] | 6.30[a] | – | – |
| O=C(NCc1ccc(F)c(F)c1F)c1snc(N=S2CCCC2)c1F [II-078] | – | 1.55^[a] | – |
| O=CCCNc1nsc(C(=O)NCC2CCCCC2)c1Cl [I-715] | 2.83[a] | – | – |
| O=C(NCc1ccc(F)cc1F)c1cc(N(Cc2ccccc2)Cc2ccccc2)ns1 [I-322] | 4.45[a] | – | – |
| Nc1nsc(C(=O)NCCc2ccccc2Cl)c1Cl [I-895] | 2.41[a] | – | – |
| Nc1nsc(C(=O)Nc2ccc(F)cc2)c1Cl [I-857] | 2.04[a] | – | – |
| O=C(c1cc(N(Cc2ccccc2)Cc2ccccc2)ns1)N(Cc1cc(Cl)ccc1Br)C1CC1 [I-993] | 6.11[a] | – | – |
| O=C(c1cc(NCc2ccccc2)ns1)N(Cc1cc(Cl)ccc1Br)C1CC1 [I-1002] | 4.51[a] | – | – |
| CCOC(=O)c1snc(N)c1Br [E-VII-060] | – | 1.93^[a] | – |
| O=C(NC1CCCC2CCCCC21)c1snc(Cl)c1Cl (stereo not drawn) [E-II-025] | – | 5.27^[a] | – |
| Cc1ccc(NC(=O)c2snc(N)c2Cl)c(C)c1 [I-923] | 2.44[a] | – | – |
| CCCC(=O)Nc1nsc(C(=O)NCC2CCCCC2)c1Cl [I-170] | 2.84[a] | – | – |

Results, then the compound that gave them:

| LogP | LogP [a] | LogP [b] | Compound |
| --- | --- | --- | --- |
| 2.26[a] | – | – | Cc1ccc(CNC(=O)c2snc(N)c2Cl)c(F)c1F [I-123] |
| 4.69[a] | – | – | COc1ccc(CNc2nsc(C(=O)NCC3CCCCCC3)c2Cl)cc1 [I-045] |
| 4.44[a] | – | – | COc1ccc(CNc2nsc(C(=O)NCc3ccc(Oc4ccc(F)cc4)cc3)c2Cl)cc1 [I-222] |
| 2.59[a] | – | – | Nc1nsc(C(=O)NCCc2ccccc2)c1-c1ccc(F)cc1 [I-994] |
| 4.80[a] | – | – | COc1ccc(CNc2nsc(C(=O)NCc3cc(C)ccc3C(C)C)c2Cl)cc1 [I-392] |
| 2.33[a] | – | – | COc1ccc(CNc2nsc(C(=O)NCc3cnn(C)c3C)c2Cl)cc1 [I-1341] |
| 5.22[a] | – | – | COc1ccc(CNc2nsc(C(=O)NC3CCc4cc(C(C)(C)C)ccc43)c2Cl)cc1 (stereo not drawn) [I-1331] |
| 1.54[a] | – | – | COc1ccc(CNc2nsc(C(=O)NC(C)c3ccncc3)c2Cl)cc1 (stereo not drawn) [I-1189] |
| 1.63[a] | – | – | COc1ccc(CNc2nsc(C(=O)NC(C)c3cccnc3)c2Cl)cc1 (stereo not drawn) [I-1253] |
| 1.48[a] | – | – | COc1ccc(CNC(=O)c2cc(N)ns2)c(F)c1 [I-171] |
| 4.04[a] | – | – | COc1ccc(CNc2nsc(C(=O)NC3CCc4ccccc43)c2Cl)cc1 (stereo not drawn) [I-111] |
| 3.23[a] | – | – | COc1ccc(CNc2nsc(C(=O)NCc3ccc(C#N)cc3)c2Cl)cc1 [I-1555] |
| 2.98[a] | – | – | COc1ccc(CNc2nsc(C(=O)NCc3cnc(Cl)cn3)c2Cl)cc1 [I-1309] |
| 1.89[a] | – | – | O=CNc1nsc(C(=O)NCc2ccc(F)cc2F)c1Cl [I-467] |
| – | 5.03^[a] | – | COc1ccc(CN(Cc2ccccc2)c2nscc2Cl)cc1 [Z-A-007] |
| 3.17[a] | – | – | COc1ccc(CNc2nsc(C(=O)NC(C)c3ccc(Cl)nc3)c2Cl)cc1 (stereo not drawn) [I-1343] |
| – | 3.83 | 3.76 | COc1ccc(CNc2nsc(C(=O)N3CCc4ccccc43)c2Cl)cc1 [II-069] |
| 1.44[a] | – | – | N#Cc1ccc(CNC(=O)c2snc(N)c2Cl)cc1 [I-783] |
| 3.39[a] | – | – | COc1ccc(CNc2nsc(C(=O)NCc3ccc(C)n3C)c2Cl)cc1 [I-1320] |
| 6.25[a] | – | – | COc1ccc(CNc2nsc(C(=O)NC3CCC(C4CCCCC4)CC3)c2Cl)cc1 (stereo not drawn) [I-1347] |
| 5.11[a] | – | – | COc1ccc(CNc2nsc(C(=O)N(Cc3cc(C)c(C)cc3C)C3CC3)c2Cl)cc1 [I-889] |
| 3.46[a] | – | – | COc1ccc(CNC(=O)c2snc(NCc3ccc(OC)cc3)c2Cl)cc1 [I-102] |
| 1.54[a] | – | – | CCC(=O)Nc1nsc(C(=O)NCc2ccc(C#N)cc2)c1Cl [I-811] |

| LogP | LogP [a] | LogP [b] | Compound |
| --- | --- | --- | --- |
| – | 3.73^[a] | – | COc1ccc(CNc2nsc(C(=O)N3CCc4cc(F)ccc4C3)c2Cl)cc1 [II-065] |
| 4.16[a] | – | – | COc1ccc(CNc2nsc(C(=O)NC(C)c3ccccc3Cl)c2Cl)cc1 (stereo not drawn) [I-112] |
| 3.90[a] | – | – | COc1ccc(CNc2nsc(C(=O)NCC3CC=CCC3)c2Cl)cc1 (stereo not drawn) [I-078] |
| 2.56[a] | – | – | COc1ccc(CNc2nsc(C(=O)NCc3ccnc(OC)n3)c2Cl)cc1 [I-1316] |
| 4.09[a] | – | – | COc1ccc(CNc2nsc(C(=O)N(CC(C)C)C3CC3)c2Cl)cc1 [I-900] |
| 4.61[a] | – | – | COc1ccc(CNc2nsc(C(=O)NC(C)c3ccc(Cl)cc3Cl)c2Cl)cc1 (stereo not drawn) [I-1256] |
| 3.44[a] | – | – | COc1ccc(CNc2nsc(C(=O)NCc3ccc(OC)c(F)c3)c2Cl)cc1 [I-224] |
| 3.99[a] | – | – | C#CC1(NC(=O)c2snc(NCc3ccc(OC)cc3)c2Cl)CCCCC1 [I-1209] |
| 1.49[a] | – | – | COc1ccc(CNc2nsc(C(=O)NCc3cnccc3OC)c2Cl)cc1 [I-1330] |
| 5.48[a] | – | – | COc1ccc(CNc2nsc(C(=O)NCC3C(C)CCCC3(C)C)c2Cl)cc1 (stereo not drawn) [I-076] |
| 5.11[a] | – | – | COc1ccc(CNc2nsc(C(=O)N(Cc3cc(Cl)cc(C(F)(F)F)c3)C3CC3)c2Cl)cc1 [I-947] |
| 2.03[a] | – | – | CC(=O)Nc1nsc(C(=O)NCc2ccc(Cl)cc2)c1Cl [I-570] |
| 2.13[a] | – | – | Nc1nsc(C(=O)NCc2cc(F)c(F)c(F)c2)c1Cl [I-131] |
| – | 2.68^[a] | – | CC(Cc1ccc(Cl)cc1)NC(=O)c1snc(N)c1Cl (stereo not drawn) [II-027] |
| 3.94[a] | – | – | COc1ccc(CNc2nsc(C(=O)NCc3ccc(C4CC4)cc3)c2C2CC2)cc1 [I-600] |
| 2.29[a] | – | – | COC(=O)Nc1nsc(C(=O)NCc2ccc(Cl)cc2)c1Cl [I-579] |
| – | 4.32^[a] | – | COc1ccc(CNc2nsc(C(=O)NC(C)Cc3ccc(Cl)cc3)c2Cl)cc1 (stereo not drawn) [II-023] |
| 2.23[a] | – | – | COc1cccc(CNC(=O)c2snc(N)c2Cl)c1Cl [I-465] |
| 2.21[a] | – | – | Nc1nsc(C(=O)NCc2ccc(Cl)cc2)c1C1CC1 [I-358] |
| 1.44[a] | – | – | COc1ccc(CNc2nsc(C(=O)NCCCn3ccnc3C)c2Cl)cc1 [I-1263] |
| 4.49[a] | – | – | COc1ccc(CNc2nsc(C(=O)N(Cc3cc(Cl)ccc3F)C3CC3)c2Cl)cc1 [I-988] |
| 3.90[a] | – | – | COc1ccc(CNc2nsc(C(=O)NC(C)C3(Cl)CC3)c2Cl)cc1 (stereo not drawn) [I-1250] |

same assay, conditions: HPLC LC-UV, acidic range, 0.1% formic acid in water and acetonitrile as eluent

| Compound | chromatographic logP |
| --- | --- |
| O=C(NCC1CCCCC1)c1snc(N=C(c2ccccc2)c2ccccc2)c1Cl [II-002, 4-chloro-N-(cyclohexylmethyl)-3-[(diphenylmethylene)amino]isothiazole-5-carboxamide] | 5.65 |
